{"source": "patent US20230167103A1", "about": "(Bayer Aktiengesellschaft, priority 2020, published 2023)"}
{"molecular_target": "T1, human DGKζ (Homo sapiens, UniProt Q13574)", "T1 construct": "made in house; host or cells: Sf9 insect cells, baculovirus", "T1 sequence (Q13574 with tags, fused parts or gaps)": "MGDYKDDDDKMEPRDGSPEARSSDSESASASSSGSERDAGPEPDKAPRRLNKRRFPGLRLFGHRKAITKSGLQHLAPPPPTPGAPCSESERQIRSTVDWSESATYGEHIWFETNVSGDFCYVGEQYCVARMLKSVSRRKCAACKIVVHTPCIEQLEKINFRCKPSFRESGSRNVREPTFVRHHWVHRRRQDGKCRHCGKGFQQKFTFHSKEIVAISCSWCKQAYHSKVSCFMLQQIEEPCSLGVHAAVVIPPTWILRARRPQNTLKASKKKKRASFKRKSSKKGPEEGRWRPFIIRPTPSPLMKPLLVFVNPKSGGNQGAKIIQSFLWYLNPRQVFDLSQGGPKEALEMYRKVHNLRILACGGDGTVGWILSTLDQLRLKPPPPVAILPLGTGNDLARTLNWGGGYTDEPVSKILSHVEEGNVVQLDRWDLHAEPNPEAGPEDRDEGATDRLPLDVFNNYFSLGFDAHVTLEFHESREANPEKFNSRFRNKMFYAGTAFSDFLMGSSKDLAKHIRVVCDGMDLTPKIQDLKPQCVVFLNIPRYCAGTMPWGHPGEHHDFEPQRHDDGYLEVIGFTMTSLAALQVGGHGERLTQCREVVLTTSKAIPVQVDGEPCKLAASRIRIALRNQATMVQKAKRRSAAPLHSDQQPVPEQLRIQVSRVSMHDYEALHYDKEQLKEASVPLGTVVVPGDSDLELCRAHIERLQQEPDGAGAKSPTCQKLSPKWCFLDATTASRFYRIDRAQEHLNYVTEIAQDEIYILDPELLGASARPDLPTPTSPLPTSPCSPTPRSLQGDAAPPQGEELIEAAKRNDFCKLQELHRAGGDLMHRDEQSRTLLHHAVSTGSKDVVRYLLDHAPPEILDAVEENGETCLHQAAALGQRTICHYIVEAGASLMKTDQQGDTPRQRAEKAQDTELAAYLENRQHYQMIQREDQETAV", "experiment": "Human DGKζ kinase activity inhibition assay (ADP-Glo)", "format": "biochemical", "details": "example compounds; recombinant full-length human DGKζ, 1,2-dioleoyl-sn-glycerol 7 μM, ATP 55 μM, 20 min at 22° C.; read-out: IC50 values of examples in in vitro human DGKζ kinase activity inhibition assays", "experimental": "(§1) Human diacylglycerol kinase zeta (DGKζ) inhibitory activity of compounds of the present invention was quantified employing the human DGKζ kinase activity assay as described in the following paragraphs. In essence, the enzyme activity was measured by quantification of the adenosine-di-phosphate (ADP) generated as a co-product of the enzyme reaction via the “ADP-Glo™ Kinase Assay” kit from the company Promega. This detection system works as follows: In a first step the adenosine-tri-phosphate (ATP) not consumed in the kinase reaction is quantitatively converted to cyclic adenosine-mono-phosphate (cAMP) employing an adenylate cyclase (“ADP-Glo-reagent”), then the adenylate cyclase is stopped and the ADP generated in the kinase reaction is converted to ATP, which subsequently generates in a luciferase-based reaction a glow-luminescence signal (“Kinase Detection Reagent”).\n(§2) C-terminally FLAG-tagged, recombinant full-length human DGKζ (inhouse expressed in baculovirus infected insect cells, purified using anti-Flag pulldown and size exclusion chromatography) was used as enzyme. As an alternative, commercially available enzyme by Carnabio can be used. As substrate for the kinase, 1,2-dioleoyl-sn-glycerol, reconstituted in octyl-β-D-glucopyranoside micelles, was used. […] Subsequently, 22.55 volumes of a 510 mM solution of octyl-β-D-glucopyranoside (Sigma-Aldrich, Cat. #O8001-10G) in 50 mM MOPS buffer (pH 7.4) were added, and the mixture was sonicated in an ultrasonic bath for 20 s. Then 35 volumes of 50 mM MOPS buffer (pH 7.4) were added to yield a solution of 0.28 mM 1,2 dioleoyl-sn-glycerol and 200 mM octyl-β-D-glucopyranoside, which was aliquoted, flash-frozen in liquid nitrogen, and stored at −20° C. until use.\n(§3) For the assay 50 nl of a 100-fold concentrated solution of the test compound in dimethyl sulfoxide (DMSO, Sigma) was pipetted into either a white 1536-well or a white low-volume 384-well microtiter plate (both Greiner Bio-One, Frickenhausen, Germany). […] The concentration of DGKζ was adjusted depending of the activity of the enzyme lot and was chosen appropriate to have the assay in the linear range, a typical concentration is about 0.1 nM. The reaction was stopped by the addition of 2.5 μL of “ADP-Glo-reagent” (1 to 1.5 diluted with water) and the resulting mixture was incubated at 22° C. for 1 h to convert the ATP not consumed in the kinase reaction completely to cAMP. Subsequently 2.5 μl of the “kinase detection reagent” (1.2 fold more concentrated than recommended by the producer) were added, the resulting mixture was incubated at 22° C. for 1 h and then the luminescence measured with a suitable measurement instrument (e.g. Viewlux™ from Perkin-Elmer). The amount of emitted light was taken as a measure for the amount of ADP generated and thereby for the activity of the DGKζ.\n(§4) The data were normalised (enzyme reaction without inhibitor=0% inhibition, all other assay components but no enzyme=100% inhibition).", "units": {"IC50": "nM"}}
{"compound": "CC(C(N)=O)N(c1ccc(F)cc1)c1nc(N)c(C(=O)c2cc(CN3CCC(F)(F)C(C)C3)no2)s1", "note": "(mixture of isomers) [Example 76, 2-(N-[4-amino-5-[3-[(4,4-difluoro-3-methyl-1-piperidyl)methyl]isoxazole-5-carbonyl]thiazol-2-yl]-4-fluoro-anilino)propanamide]", "IC50": 10}
{"compound": "CC(C(N)=O)N(c1ccc(F)cc1)c1nc(N)c(C(=O)c2cc(CN(C)C3CCCC3)no2)s1", "note": "(racemic) [Example 60, rac-2-(N-[4-amino-5-[3-[[cyclopentyl(methyl)amino]methyl]isoxazole-5-carbonyl]thiazol-2-yl]-4-fluoro-anilino)propanamide]", "IC50": 58}
{"compound": "CC(C(N)=O)N(c1ccc(F)cc1)c1nc(N)c(C(=O)c2cc(CN3CCCCC3)no2)s1", "note": "(racemic) [Example 63, rac-2-(N-[4-amino-5-[3-(1-piperidylmethyl)isoxazole-5-carbonyl]thiazol-2-yl]-4-fluoro-anilino)propanamide]", "IC50": 88}
{"compound": "CC(C(N)=O)N(c1ccc(F)cc1)c1nc(N)c(C(=O)c2cc(C(=O)NCC3CC3)no2)s1", "note": "(racemic) [Example 22, rac-5-[4-amino-2-(N-(2-amino-1-methyl-2-oxo-ethyl)-4-fluoro-anilino)thiazole-5-carbonyl]-N-(cyclopropylmethyl)isoxazole-3-carboxamide]", "IC50": 182}
{"compound": "CC(C(N)=O)N(c1ccc(F)cc1)c1nc(N)c(C(=O)c2cc(C(=O)Nc3ccccn3)no2)s1", "note": "(racemic) [Example 28, rac-5-[4-amino-2-(N-(2-amino-1-methyl-2-oxo-ethyl)-4-fluoro-anilino)thiazole-5-carbonyl]-N-(2-pyridyl)isoxazole-3-carboxamide]", "IC50": 90}
{"compound": "CC(C(N)=O)N(c1ccc(F)cc1)c1nc(N)c(C(=O)c2cc(C(=O)N3CCCC3)no2)s1", "note": "(racemic) [Example 19, rac-2-(N-[4-amino-5-[3-(pyrrolidine-1-carbonyl)isoxazole-5-carbonyl]thiazol-2-yl]-4-fluoro-anilino)propanamide]", "IC50": 315}
{"compound": "CC(C(N)=O)N(c1ccc(F)cc1)c1nc(N)c(C(=O)c2cc(C(=O)NC3CCC(F)(F)C3)no2)s1", "note": "(racemic) [Example 33, 5-[4-amino-2-(N-(2-amino-1-methyl-2-oxo-ethyl)-4-fluoro-anilino)thiazole-5-carbonyl]-N-(3,3-difluorocyclopentyl)isoxazole-3-carboxamide]", "IC50": 48}
{"compound": "CC(C(N)=O)N(c1ccc(F)cc1)c1nc(N)c(C(=O)c2cc(Br)no2)s1", "note": "(single isomer, unassigned) [Example 6.2, 2-(N-[4-amino-5-(3-bromoisoxazole-5-carbonyl)thiazol-2-yl]-4-fluoro-anilino)propanamide]", "IC50": 3490}
{"compound": "Cc1cccc(-c2noc(C(=O)c3sc(N(c4ccc(F)cc4)C(C)C(N)=O)nc3N)n2)c1C", "note": "(racemic) [Example 56, rac-2-(N-[4-amino-5-[3-(2,3-dimethylphenyl)-1,2,4-oxadiazole-5-carbonyl]thiazol-2-yl]-4-fluoro-anilino)propanamide]", "IC50": 14}
{"compound": "CC(C(N)=O)N(c1ccc(F)cc1)c1nc(N)c(C(=O)c2cc(-c3ccccc3)no2)s1", "note": "(single isomer, unassigned) [Example 3.2, 2-(N-[4-amino-5-(3-phenylisoxazole-5-carbonyl)thiazol-2-yl]-4-fluoro-anilino)propanamide]", "IC50": 1750}
{"compound": "CC(C(N)=O)N(c1ccc(F)cc1)c1nc(N)c(C(=O)c2cc(CN3CCC(F)C3)no2)s1", "note": "(mixture of isomers) [Example 77, 2-(N-[4-amino-5-[3-[(3-fluoropyrrolidin-1-yl)methyl]isoxazole-5-carbonyl]thiazol-2-yl]-4-fluoro-anilino)propanamide]", "IC50": 242}
{"compound": "CCOC(=O)c1cc(C(=O)c2sc(N(c3ccc(F)cc3)C(C)C(N)=O)nc2N)on1", "note": "(racemic) [Example 9, rac-Ethyl 5-[4-amino-2-(N-(2-amino-1-methyl-2-oxo-ethyl)-4-fluoro-anilino)thiazole-5-carbonyl]isoxazole-3-carboxylate]", "IC50": 189}
{"compound": "CC(C(N)=O)N(c1ccc(F)cc1)c1nc(N)c(C(=O)c2cc(C(=O)NCC(F)(F)F)no2)s1", "note": "(racemic) [Example 23, rac-5-[4-amino-2-(N-(2-amino-1-methyl-2-oxo-ethyl)-4-fluoro-anilino)thiazole-5-carbonyl]-N-(2,2,2-trifluoroethyl)isoxazole-3-carboxamide]", "IC50": 212}
{"compound": "CC(C(N)=O)N(c1ccc(F)cc1)c1nc(N)c(C(=O)c2cc(C(=O)Nc3ccncc3)no2)s1", "note": "(racemic) [Example 16, rac-5-[4-amino-2-(N-(2-amino-1-methyl-2-oxo-ethyl)-4-fluoro-anilino)thiazole-5-carbonyl]-N-(4-pyridyl)isoxazole-3-carboxamide]", "IC50": 420}
{"compound": "CC(C(N)=O)N(c1ccc(F)cc1)c1nc(N)c(C(=O)c2cc(C(=O)N3CCOCC3)no2)s1", "note": "(racemic) [Example 13, rac-2-(N-[4-amino-5-[3-(morpholine-4-carbonyl)isoxazole-5-carbonyl]thiazol-2-yl]-4-fluoro-anilino)propanamide]", "IC50": 977}
{"compound": "CC(C(N)=O)N(c1ccc(F)cc1)c1nc(N)c(C(=O)c2cc(C(=O)N[C@H]3C[C@@H](F)C3)no2)s1", "note": "(mixture of isomers) [Example 38, 5-[4-amino-2-(N-(2-amino-1-methyl-2-oxo-ethyl)-4-fluoro-anilino)thiazole-5-carbonyl]-N-(cis-3-fluorocyclobutyl)isoxazole-3-carboxamide]", "IC50": 344}
{"compound": "CC(C(N)=O)N(c1ccc(F)cc1)c1nc(N)c(C(=O)c2cc(C(=O)NC3CC(F)(F)C3)no2)s1", "note": "(single isomer, unassigned) [Example 32.1, 5-[4-amino-2-(N-(2-amino-1-methyl-2-oxo-ethyl)-4-fluoro-anilino)thiazole-5-carbonyl]-N-(3,3-difluorocyclobutyl)isoxazole-3-carboxamide]", "IC50": 31}
{"compound": "CC(C(N)=O)N(c1ccc(F)c(F)c1)c1nc(N)c(C(=O)c2cc(C(=O)NC3(C)CCC3)no2)s1", "note": "(racemic) [Example 44, rac-5-[4-amino-2-(N-(2-amino-1-methyl-2-oxo-ethyl)-3,4-difluoro-anilino)thiazole-5-carbonyl]-N-(1-methylcyclobutyl)isoxazole-3-carboxamide]", "IC50": 59}
{"compound": "CC(C(N)=O)N(c1ccc(F)cc1)c1nc(N)c(C(=O)c2cc(C(=O)N[C@@H]3C[C@@H]3F)no2)s1", "note": "(mixture of isomers) [Example 11, 5-[4-amino-2-(N-(2-amino-1-methyl-2-oxo-ethyl)-4-fluoro-anilino)thiazole-5-carbonyl]-N-[(cis)-2-fluorocyclopropyl]isoxazole-3-carboxamide]", "IC50": 2360}
{"compound": "CC(C(N)=O)N(c1ccc(F)cc1)c1nc(N)c(C(=O)c2cc(-c3ccncc3)no2)s1", "note": "(racemic) [Example 8, rac-2-(N-[4-amino-5-[3-(4-pyridyl)isoxazole-5-carbonyl]thiazol-2-yl]-4-fluoro-anilino)propanamide]", "IC50": 728}
{"molecular_target": "T1, human DGKζ", "experiment": "Human DGKζ kinase activity inhibition assay (ADP-Glo)", "format": "biochemical", "details": "intermediates (comparative, lacking the R2 alkyl-carboxamide group); same assay conditions; read-out: IC50 values of intermediates in in vitro human DGKζ kinase activity inhibition assays", "experimental": "as §1, §2, §3, §4", "units": {"IC50": "nM"}}
{"compound": "rac-5-[4-amino-2-(N-(2-amino-1-methyl-2-oxo-ethyl)-4-fluoro-anilino)thiazole-5-carbonyl]-N-(2-pyridyl)isoxazole-3-carboxamide [Example 28]", "IC50": 19400}
{"compound": "rac-2-(N-[4-amino-5-[3-(pyrrolidine-1-carbonyl)isoxazole-5-carbonyl]thiazol-2-yl]-4-fluoro-anilino)propanamide [Example 19]", "IC50": "> 20000"}
